For data set [1], the target named is T1, human PDE10A full length (Homo sapiens, UniProt Q9Y233).
T1 construct: purchased Enzo Life Science, Lausen, Switzerland SE-534
The experiment in a line: PDE10A Scintillation Proximity Assay (SPA), human PDE10A full length assay. It is filed as biochemical. As to conditions: 50 nM cGMP + 50 nM [3H]-cGMP, 20 minutes at room temperature, read-out: PDE10A inhibition IC50. Summed up: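 SPA format with full-length enzyme in 20 mM HEPES pH 7.5, 10 mM MgCl2, 0.05 mg/ml BSA, substrate 50 nM cGMP plus 50 nM [3H]-cGMP. Reaction started with substrate, run 20 min at room temperature, stopped with YSi-SPA beads in zinc sulphate. IC50 from scintillation counts over an inhibitor concentration range.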
(In general: SPA uses beads or plates that emit light when radiolabelled molecules are held near them.)

Each structure is given as a SMILES string.

T1 sequence (Q9Y233 1-779 isoform Q9Y233-1): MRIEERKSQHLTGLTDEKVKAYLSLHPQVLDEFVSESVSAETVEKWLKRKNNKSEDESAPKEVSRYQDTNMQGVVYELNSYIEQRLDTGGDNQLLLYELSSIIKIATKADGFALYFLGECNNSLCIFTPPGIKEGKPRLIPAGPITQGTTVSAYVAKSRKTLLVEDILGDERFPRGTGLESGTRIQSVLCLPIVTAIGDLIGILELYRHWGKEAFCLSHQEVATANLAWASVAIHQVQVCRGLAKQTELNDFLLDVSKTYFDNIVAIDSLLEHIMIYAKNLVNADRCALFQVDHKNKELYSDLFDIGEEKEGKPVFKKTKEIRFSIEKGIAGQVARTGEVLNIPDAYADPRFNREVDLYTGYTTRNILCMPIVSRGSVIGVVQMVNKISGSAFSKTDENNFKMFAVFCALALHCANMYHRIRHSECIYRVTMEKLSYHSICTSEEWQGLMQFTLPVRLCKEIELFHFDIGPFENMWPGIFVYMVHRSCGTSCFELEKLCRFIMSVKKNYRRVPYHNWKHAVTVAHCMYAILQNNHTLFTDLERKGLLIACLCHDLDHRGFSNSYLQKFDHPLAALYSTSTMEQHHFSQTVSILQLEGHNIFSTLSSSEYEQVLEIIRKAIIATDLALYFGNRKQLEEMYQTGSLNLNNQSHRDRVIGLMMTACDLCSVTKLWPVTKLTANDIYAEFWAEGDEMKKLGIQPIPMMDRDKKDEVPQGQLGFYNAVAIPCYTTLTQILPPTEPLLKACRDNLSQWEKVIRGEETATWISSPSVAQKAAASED

As a reminder, the melting point is the temperature, or range, at which the solid turns liquid. The IC50 is the point on the concentration scale where inhibition reaches its midpoint. Turning to `Cn1ncc(C(=O)N2CCC2)c1C(=O)Nc1ccn2nc(N3CCCC3)nc2c1` [Example 60, 4-(Azetidine-1-carbonyl)-2-methyl-2H-pyrazole-3-carboxylic acid (2-pyrrolidin-1-yl-[1,2,4]triazolo[1,5-a]pyridin-7-yl)-amide], the melting point was greater than 250 °C. The IC50 in data set [1] turned out to be 3.16 nM.

Molecule `Cn1ncc(C(=O)N2CCOCC2)c1C(=O)Nc1ccn2nc(N3CCCC3)nc2c1` [Example 61, 2-Methyl-4-(morpholine-4-carbonyl)-2H-pyrazole-3-carboxylic acid (2-pyrrolidin-1-yl-[1,2,4]triazolo[1,5-a]pyridin-7-yl)-amide] displayed a melting point of 194 to 197 °C. The IC50 in data set [1] was found to be 0.94 nM.

Take `CCNC(=O)c1nc2cc(NC(=O)c3c(C(=O)N4CCC4)cnn3C)ccn2n1` [Example 63, 7-{[4-(Azetidine-1-carbonyl)-2-methyl-2H-pyrazole-3-carbonyl]-amino}-[1,2,4]triazolo[1,5-a]pyridine-2-carboxylic acid ethylamide]: the melting point is 217 to 229 °C. The IC50 in data set [1] stood at 93.7 nM.

`COCCNC(=O)c1nc2cc(NC(=O)c3c(C(=O)N4CCC4)cnn3C)ccn2n1` [Example 64, 7-(4-(Azetidine-1-carbonyl)-1-methyl-1H-pyrazole-5-carboxamido)-N-(2-methoxyethyl)-[1,2,4]triazolo[1,5-a]pyridine-2-carboxamide] showed a melting point of 159 to 161 °C. Moreover, the IC50 in data set [1] was 104 nM.

The molecule `Cn1ncc(C(=O)N2CCC2)c1C(=O)Nc1ccn2nc(Br)nc2c1` [Example 65, 4-(Azetidine-1-carbonyl)-2-methyl-2H-pyrazole-3-carboxylic acid (2-bromo-[1,2,4]triazolo[1,5-a]pyridin-7-yl)-amide] registered a melting point greater than 250 °C. Besides, in data set [1], the IC50 was 67.4 nM.

`Cn1ncc(C(=O)N2CCC2)c1C(=O)Nc1ccn2nc(-c3ccncc3)nc2c1` [Example 66, 4-(Azetidine-1-carbonyl)-2-methyl-2H-pyrazole-3-carboxylic acid (2-pyridin-4-yl-[1,2,4]triazolo[1,5-a]pyridin-7-yl)-amide] returned a melting point greater than 250 °C. Moreover, the IC50 in data set [1] was 1.82 nM.

As to `Cc1cc(-c2nc3cc(NC(=O)c4c(C(=O)N5CCC5)cnn4C)ccn3n2)ccn1` [Example 67, 4-(Azetidine-1-carbonyl)-2-methyl-2H-pyrazole-3-carboxylic acid [2-(2-methyl-pyridin-4-yl)-[1,2,4]triazolo[1,5-a]pyridin-7-yl]-amide], the melting point lay within 210 to 211 °C. Besides, the IC50 in data set [1] stood at 2.06 nM.

As to `Cc1cncc(-c2nc3cc(NC(=O)c4c(C(=O)N5CCC5)cnn4C)ccn3n2)c1` [Example 68, 4-(Azetidine-1-carbonyl)-2-methyl-2H-pyrazole-3-carboxylic acid [2-(5-methyl-pyridin-3-yl)-[1,2,4]triazolo[1,5-a]pyridin-7-yl]-amide], the melting point fell in the range of 262 to 264 °C. Also, the IC50 in data set [1] is 11.2 nM.

As for `CN(CCF)c1nc2cc(NC(=O)c3c(C(=O)N4CCC4)cnn3C)ccn2n1` [Example 70, 4-(Azetidine-1-carbonyl)-2-methyl-2H-pyrazole-3-carboxylic acid {2-[(2-fluoro-ethyl)-methyl-amino]-[1,2,4]triazolo[1,5-a]pyridin-7-yl}-amide], the melting point was 236 to 237 °C. Moreover, the IC50 in data set [1] was determined as 5.65 nM.

In turn, `CN(CCF)c1nc2cc(NC(=O)c3c(C(=O)N4CCOCC4)cnn3C)ccn2n1` [Example 71, 2-Methyl-4-(morpholine-4-carbonyl)-2H-pyrazole-3-carboxylic acid {2-[(2-fluoro-ethyl)-methyl-amino]-[1,2,4]triazolo[1,5-a]pyridin-7-yl}-amide] showed a melting point of 144 to 145 °C. In data set [1], the IC50 was determined as 6.21 nM.

`CN(C)C(=O)c1cnn(C)c1C(=O)Nc1ccn2nc(N(C)CCF)nc2c1` [Example 72, 2-Methyl-2H-pyrazole-3,4-dicarboxylic acid 4-dimethylamide 3-({2-[(2-fluoro-ethyl)-methyl-amino]-[1,2,4]triazolo[1,5-a]pyridin-7-yl}-amide)] had a melting point of 203 to 204 °C. For the same molecule, the IC50 in data set [1] is 20.6 nM.

With `CCN(C)C(=O)c1cnn(C)c1C(=O)Nc1ccn2nc(N(C)CCF)nc2c1` [Example 73, 2-Methyl-2H-pyrazole-3,4-dicarboxylic acid 4-(ethyl-methyl-amide) 3-({2-[(2-fluoro-ethyl)-methyl-amino]-[1,2,4]triazolo[1,5-a]pyridin-7-yl}-amide)], the melting point was 145 to 147 °C. Moreover, in data set [1], the IC50 came out at 11.6 nM.

Molecule `CN(CCF)c1nc2cc(NC(=O)c3c(C(=O)N(C)C4CC4)cnn3C)ccn2n1` [Example 74, 2-Methyl-2H-pyrazole-3,4-dicarboxylic acid 4-(cyclopropyl-methyl-amide)3-({2-[(2-fluoro-ethyl)-methyl-amino]-[1,2,4]triazolo[1,5-a]pyridin-7-yl}-amide)] showed a melting point of 148 to 151 °C. In data set [1], the IC50 was 1.86 nM.

`COc1ccccc1-c1nc2cc(NC(=O)c3c(C(=O)N4CCC4)cnn3C)ccn2n1` [Example 102, 4-(Azetidine-1-carbonyl)-2-methyl-2H-pyrazole-3-carboxylic acid [2-(2-methoxy-phenyl)-[1,2,4]triazolo[1,5-a]pyridin-7-yl]-amide] showed a melting point of 258.1 °C. In addition, in data set [1], the IC50 was found to be 0.65 nM.

In turn, `COc1ccccc1-c1nc2cc(NC(=O)c3c(C(=O)N(C)C4CC4)cnn3C)ccn2n1` [Example 103, 2-Methyl-2H-pyrazole-3,4-dicarboxylic acid 4-(cyclopropyl-methyl-amide)3-{[2-(2-methoxy-phenyl)-[1,2,4]triazolo[1,5-a]pyridin-7-yl]-amide}] displayed a melting point of 239.2 °C. For the same molecule, in data set [1], the IC50 was 0.31 nM.

Molecule `CN(C)C(=O)c1cnn(C)c1C(=O)Nc1ccn2nc(-c3cccc(F)c3)nc2c1` [Example 104, 2-Methyl-2H-pyrazole-3,4-dicarboxylic acid 4-dimethylamide 3-{[2-(3-fluoro-phenyl)[1,2,4]triazolo[1,5-a]pyridin-7-yl]-amide}] gave a melting point of 255 to 260 °C. The IC50 in data set [1] is 1.43 nM.

`Cn1ncc(C(=O)N2CCC2)c1C(=O)Nc1ccn2nc(-c3cccc(F)c3)nc2c1` [Example 105, 4-(Azetidine-1-carbonyl)-2-methyl-2H-pyrazole-3-carboxylic acid [2-(3-fluoro-phenyl)-[1,2,4]triazolo[1,5-a]pyridin-7-yl]-amide] showed a melting point of 232 to 236 °C. In addition, in data set [1], the IC50 came out at 1.11 nM.

In turn, `Cn1ncc(C(=O)N2CCOCC2)c1C(=O)Nc1ccn2nc(-c3cccc(F)c3)nc2c1` [Example 106, 2-Methyl-4-(morpholine-4-carbonyl)-2H-pyrazole-3-carboxylic acid [2-(3-fluoro-phenyl)-[1,2,4]triazolo[1,5-a]pyridin-7-yl]-amide] yielded a melting point of 212 to 214 °C. The IC50 in data set [1] turned out to be 1.54 nM.

In the case of `COC1CN(C(=O)c2cnn(C)c2C(=O)Nc2ccn3nc(-c4cccc(F)c4)nc3c2)C1` [Example 107, 4-(3-Methoxy-azetidine-1-carbonyl)-2-methyl-2H-pyrazole-3-carboxylic acid [2-(3-fluoro-phenyl)-[1,2,4]triazolo[1,5-a]pyridin-7-yl]-amide], the melting point was 255 to 257 °C. In data set [1], the IC50 turned out to be 4.7 nM.
